Data on 16 molecules can be found in PubChem BioAssay AID192 (DTP/NCI, 2004).

The experiment concerns BDF1 mice, B16 melanoma ip, median survival T/C. As to the kind of experiment: NCI In Vivo Anticancer Drug Screen. Data for tumor model B16 Melanoma (intraperitoneal) in B6D2F1 (BDF1) mice. Particulars: endpoint: median survival time, higher = longer survival. The method, boiled down:
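Read-out: survival or tumor size, given as treated/control ratio. Controls received vehicle only; animals bore transplantable tumors.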

The mark [1] stands for this setting: dose: 100.0 mg/kg/injection, schedule: Q04DX003 (ip), vehicle: saline with Tween-80.
Where [2] appears, read: dose: 200.0 mg/kg/injection, schedule: Q04DX003 (ip), vehicle: saline with Tween-80.
Setting [3] is: dose: 400.0 mg/kg/injection, schedule: Q04DX003 (ip), vehicle: saline with Tween-80.
[4] abbreviates: dose: 6.25 mg/kg/injection, schedule: Q01DX009 (ip), vehicle: saline.
Setting [5] is: dose: 25.0 mg/kg/injection, schedule: Q01DX009 (ip), vehicle: saline.
[6] abbreviates: dose: 6.25 mg/kg/injection, schedule: Q01DX009 (ip), vehicle: saline with Tween-80.
Where [7] appears, read: dose: 12.5 mg/kg/injection, schedule: Q01DX009 (ip), vehicle: saline with Tween-80.
[8] abbreviates: dose: 25.0 mg/kg/injection, schedule: Q01DX009 (ip), vehicle: saline with Tween-80.
The mark [9] stands for this setting: dose: 100.0 mg/kg/injection, schedule: Q01DX009 (ip), vehicle: Klucel (hydroxypropylcellulose) (HPC).
Setting [10] is: dose: 12.5 mg/kg/injection, schedule: Q01DX009 (ip), vehicle: Klucel (hydroxypropylcellulose) (HPC).
The mark [11] stands for this setting: dose: 50.0 mg/kg/injection, schedule: Q01DX009 (ip), vehicle: saline with Tween-80.
[12] abbreviates: dose: 100.0 mg/kg/injection, schedule: Q01DX009 (ip), vehicle: saline with Tween-80.

Several values for one entry are separate records, joined by “and”; a condition that tells them apart may be missing. Identical values can stand only once. Inconclusive results and toxic doses are left out.

As for `NC(C/[N+]([O-])=N/O)C(=O)O` (centres undefined), the T/C (dose: 15.6 mg/kg/injection, schedule: Q01DX009 (ip), vehicle: saline) was 97 % of control; the T/C (dose: 15.6 mg/kg/injection, schedule: Q01DX009 (ip), vehicle: water) was 105 % of control; the T/C (dose: 15.6 mg/kg/injection, schedule: Q04DX003 (ip), vehicle: saline) was 100 % of control; the T/C (dose: 15.6 mg/kg/injection, schedule: Q04DX003 (ip), vehicle: water) is 102 % of control; the T/C (dose: 16.0 mg/kg/injection, schedule: Q01DX009 (ip), vehicle: saline) was 117 % of control; the T/C (dose: 31.3 mg/kg/injection, schedule: Q01DX009 (ip), vehicle: saline) was 102 % of control and 105 % of control. Also, the T/C is 108 % of control (dose: 31.3 mg/kg/injection, schedule: Q01DX009 (ip), vehicle: water); 97 % of control (dose: 31.3 mg/kg/injection, schedule: Q04DX003 (ip), vehicle: saline); 97 % of control (dose: 31.3 mg/kg/injection, schedule: Q04DX003 (ip), vehicle: water); 111 % of control (dose: 62.5 mg/kg/injection, schedule: Q01DX009 (ip), vehicle: saline); 111 % of control (dose: 62.5 mg/kg/injection, schedule: Q01DX009 (ip), vehicle: water); 100 % of control and 95 % of control (dose: 62.5 mg/kg/injection, schedule: Q04DX003 (ip), vehicle: saline). Further, the T/C (dose: 62.5 mg/kg/injection, schedule: Q04DX003 (ip), vehicle: water) is 108 % of control; the T/C under setting [1] was 100 % of control; the T/C (dose: 125.0 mg/kg/injection, schedule: Q04DX003 (ip), vehicle: saline) is 97 % of control and 111 % of control; the T/C (dose: 125.0 mg/kg/injection, schedule: Q04DX003 (ip), vehicle: water) is 111 % of control; the T/C under setting [2] was 100 % of control; the T/C (dose: 250.0 mg/kg/injection, schedule: Q04DX003 (ip), vehicle: saline) is 100 % of control and 109 % of control. In addition, the T/C (dose: 250.0 mg/kg/injection, schedule: Q04DX003 (ip), vehicle: water) was 111 % of control; the T/C under setting [3] is 106 % of control; the T/C (dose: 500.0 mg/kg/injection, schedule: Q04DX003 (ip), vehicle: saline) was 107 % of control; the T/C (dose: 500.0 mg/kg/injection, schedule: Q04DX003 (ip), vehicle: water) is 97 % of control.
For the molecule `NC(=S)N/N=C/c1nccc2ccccc12`, the T/C under setting [4] was 153 % of control; the T/C (dose: 9.4 mg/kg/injection, schedule: Q01DX009 (ip), vehicle: saline with Tween-80) was 105 % of control and 122 % of control; the T/C (dose: 9.4 mg/kg/injection, schedule: Q04DX003 (ip), vehicle: saline) is 122 % of control; the T/C (dose: 18.8 mg/kg/injection, schedule: Q01DX009 (ip), vehicle: saline with Tween-80) was 118 % of control and 122 % of control and 124 % of control; the T/C under setting [5] was 172 % of control; the T/C (dose: 50.0 mg/kg/injection, schedule: Q01DX009 (ip), vehicle: saline) is 196 % of control. The T/C (dose: 100.0 mg/kg/injection, schedule: Q01DX009 (ip), vehicle: saline) was 155 % of control and the T/C (dose: 150.0 mg/kg/injection, schedule: Q04DX003 (ip), vehicle: saline) was 152 % of control.
As for `NCCNc1ccc(NCCN)c2c1C(=O)c1ccccc1C2=O`, the T/C is 210 % of control (dose: 4.0 mg/kg/injection, schedule: Q01DX009 (ip), vehicle: acid diluted with saline) and 218 % of control (dose: 8.0 mg/kg/injection, schedule: Q01DX009 (ip), vehicle: acid diluted with saline).
Take `O=C1NC(c2ccccc2)C(=O)N1CCN(CCCl)CCCl` (centres undefined): the T/C was 89 % of control and 109 % of control (dose: 1.56 mg/kg/injection, schedule: Q01DX009 (ip), vehicle: saline); 95 % of control and 114 % of control (dose: 3.12 mg/kg/injection, schedule: Q01DX009 (ip), vehicle: saline); 123 % of control under setting [4]; 115 % of control under setting [5].
For `CCN(CC)Cc1cc2[nH]c3c4ccc(Cl)cc4ncc3c2cc1OC`, the T/C by setting is: under setting [6], 95 % of control; under setting [7], 98 % of control; under setting [8], 98 % of control.
Consider `CCCCC(CC)C(O)C(C)C(C)O` (centres undefined), for which the T/C is 97 % of control under setting [9] and 87 % of control (dose: 200.0 mg/kg/injection, schedule: Q01DX009 (ip), vehicle: Klucel (hydroxypropylcellulose) (HPC)).
Consider `Cc1ccc(NC(=O)c2ccc(Cl)cc2)c(Br)c1`, for which the T/C was 105 % of control under setting [1], 97 % of control under setting [2] and 88 % of control under setting [3].
With `Clc1ccc2sc3c(c2c1)CCNC3`, the T/C under setting [10] was 94 % of control; the T/C (dose: 25.0 mg/kg/injection, schedule: Q01DX009 (ip), vehicle: Klucel (hydroxypropylcellulose) (HPC)) was 111 % of control; the T/C (dose: 50.0 mg/kg/injection, schedule: Q01DX009 (ip), vehicle: Klucel (hydroxypropylcellulose) (HPC)) is 111 % of control; the T/C under setting [9] is 105 % of control.
For `CC(=O)N\C(N)=N/N=C\C(C)=N/N=C(\N)NC(C)=O`, the T/C is 108 % of control under setting [11]; 99 % of control under setting [12]; 94 % of control (dose: 200.0 mg/kg/injection, schedule: Q01DX009 (ip), vehicle: saline with Tween-80).
Turning to `ClC(Cl)(Cl)c1nc2nccnc2[nH]1`, the T/C runs as follows: (dose: 3.13 mg/kg/injection, schedule: Q01DX009 (ip), vehicle: saline with Tween-80) 102 % of control; under setting [6], 94 % of control; under setting [7], 105 % of control; under setting [8], 91 % of control.
Take `CCC(C#N)=C1CCCCC1`: the T/C was 102 % of control under setting [8], 106 % of control under setting [11] and 114 % of control under setting [12].
As for `O=NN(CCF)C(=O)NC1CCC(NC(=O)N(CCF)N=O)CC1` (centres undefined), the T/C reads like this: under setting [7], 166 % of control; (dose: 16.5 mg/kg/injection, schedule: Q01DX009 (ip), vehicle: saline with Tween-80) 232 % of control; (dose: 16.5 mg/kg/injection, schedule: Q01DX009 (ip), vehicle: saline) 181 % of control; under setting [8], 214 % of control and 276 % of control; under setting [5], 120 % of control; (dose: 37.5 mg/kg/injection, schedule: Q01DX009 (ip), vehicle: saline with Tween-80) 212 % of control.
Take `Cc1ccc2c(c1)C(=O)N(CC[P+](c1ccccc1)(c1ccccc1)c1ccccc1)C2=O`: the T/C was 93 % of control (dose: 0.78 mg/kg/injection, schedule: Q01DX009 (ip), vehicle: Klucel (hydroxypropylcellulose) (HPC)); 108 % of control (dose: 1.56 mg/kg/injection, schedule: Q01DX009 (ip), vehicle: Klucel (hydroxypropylcellulose) (HPC)); 103 % of control (dose: 3.12 mg/kg/injection, schedule: Q01DX009 (ip), vehicle: Klucel (hydroxypropylcellulose) (HPC)); 103 % of control (dose: 6.25 mg/kg/injection, schedule: Q01DX009 (ip), vehicle: Klucel (hydroxypropylcellulose) (HPC)); 95 % of control under setting [10].
`O=Cc1ccc(C(=O)O)cc1`: the T/C is 93 % of control under setting [1], 93 % of control under setting [2] and 86 % of control under setting [3].
`CSc1ccc2c(c1)C(N1CCN(C)CC1)Cc1ccccc1S2` (centres undefined): the T/C runs as follows: (dose: 1.56 mg/kg/injection, schedule: Q01DX009 (ip), vehicle: saline with Tween-80) 109 % of control; (dose: 3.12 mg/kg/injection, schedule: Q01DX009 (ip), vehicle: saline with Tween-80) 110 % of control.
In the case of `O=c1c(O)c(-c2ccc(O)c(O)c2)oc2cc(O)cc(O)c12`, the T/C (dose: 25.0 mg/kg/injection, schedule: Q02DX009 (ip), vehicle: saline) was 89 % of control; the T/C (dose: 50.0 mg/kg/injection, schedule: Q02DX009 (ip), vehicle: saline) was 88 % of control; the T/C (dose: 100.0 mg/kg/injection, schedule: Q02DX009 (ip), vehicle: saline) is 93 % of control; the T/C (dose: 200.0 mg/kg/injection, schedule: Q02DX009 (ip), vehicle: saline with Tween-80) was 86 % of control; the T/C (dose: 200.0 mg/kg/injection, schedule: Q02DX009 (ip), vehicle: saline) was 87 % of control.
